Source: patent US20230226079A1, “METHODS AND COMPOSITIONS FOR TREATMENT OF SOLID TUMORS” (Saint Louis University, priority 2022, published 2023)
Entries after “also recorded” stand apart in the source; their conditions may differ.

What was measured:
[1] = literature; listed as Momordicine I; cited from earlier work
[2] = Toxicity study, 5 days; assay type: in vivo; settings: BME 30% in drinking water
Description: For toxicity study, C57B1/6 male mice were received either 30% BME through drinking water or 20 mg/kg of M-I twice a day or 30 mg/kg of M-I once a day by IP injection for 5 days. There were three mice in each group, including untreated control. Blood was collected on day 6, and serum was prepared. Serum parameters related to hepatotoxicity (total bilirubin, alanine transaminase, aspartate transaminase, and alkaline phosphatase) and nephrotoxicity (urea and creatinine) were performed.

[3] = system: JHU029 cells; experiment: Cytotoxicity assay (Cell Counting Kit-8) in JHU029 cells; assay type: cell-based; settings: 48 h, treated for 48 h; read-out: IC50 dose, JHU029 cells
Excerpt: Normal oral keratinocytes (NOK) (kindly gifted by Dr. Karl Mugner, Tuffs University, Boston, MA, USA) were maintained in Keratinocyte SFM medium supplemented with EGF and bovine pituitary extract (GIBCO, Life Technologies, Berkeley, MO, USA) and 1% penicillin/ streptomycin. HNC cell line Ca127 was purchased from the ATCC. JHU029 (JHU-29) and JHU022 (JHU-22) cell lines were procured from the Johns Hopkins University (Baltimore, MD, USA). The Ca127 and JHU022 cells were maintained in Dulbecco's Modified Eagle Medium (DMEM), and JHU029 cells were in RPMI1640 (Sigma, St. Louis, Mo., USA) media supplemented with 10% FBS and 1% penicillin/ streptomycin (Sigma-Aldrich, St. Louis, Mo., USA) in a humidified CO2 incubator. The cell lines are routinely tested in the Inventors' laboratory to rule out mycoplasma contamination using a commercial Mycoplasma Detection kit (MycoAlert™, Lonza, Morrisville, N.C., USA). Ca127 cells are tongue origin and JHU022 and JHU029 cells are from larynx origin.
Bitter melon extract (BME) was prepared from the Chinese variety of young bitter melons (raw and green) as described previously (Rajamoorthi et al. (2013) PLoS ONE; 8, e78006). Briefly, BME was prepared by aqueous extraction from whole fruit without seeds using a household juicer at room temperature with subsequent centrifugation at 15000 g at 4 C for 30 min. BME was stored at −80 C for further analysis. […]

[4] = system: TNBC cell lines MDA-MB-231, BT459 and MDA-MB-468; experiment: TNBC cell cytotoxicity assays; assay type: cell-based
Excerpt: The Inventors tested human MDA-MB-231 and mouse 4T1 cells in dose dependent manner (FIG. 8). […] The Inventors also tested other compounds in TNBC cell cytotoxicity assays, but these required much higher amounts (>[…]) even for ˜40% cell death.

[5] = system: JHU029 xenograft; experiment: Tumorigenicity assay, JHU029 xenograft model; assay type: in vivo, nude mice
Description: (§1) JHU029 or Ca127 cells (1.5 10^6) containing 40% Matrigel were injected subcutaneously into the flank of BALB/c athymic nude mice (7-8 weeks old). When the palpable tumor was developed (>60 mm3), mice were divided into three groups randomly, 5 mice in each group. The control group was without any treatment. The BME group received 30% (v/v) BME through drinking water. M-I group received 30 mg/kg dose of M-I once in day, every day. Body weight was monitored, and tumor size was measured using a slide caliper and volume was calculated using the formula 1/2 L X W2. After animal sacrifice tumors were dissected out and snap frozen in liquid nitrogen for further analysis. All the animal experiments were carried out in accordance NIH guidelines, following a protocol approved (1017) by the Institutional Animal Care and Use Committee (IACUC) of Saint Louis University.

[6] = Pharmacokinetic study, single dose; assay type: in vivo, mice; settings: for AUC (% Extrap): C57BI/6 male mice
Description: The pharmacokinetic (PK) study of M-I was performed in male C57B1/6 mice. A single dose of M-I (formulated at 2 mg/mL dissolved in 5% DMSO/95% of a 30% w:v Captisol solution) was administered either by intraperitoneal injection (IP group, n=3) or oral gavage (PO group, n=3). After dosing, 20 uL blood samples were collected into heparin pre-coated tubes at 5 min, 15 min, 30 min, 1 h, 2 h, 4 h, 6 h, 8 h and 24 h. Samples were centrifuged, and the plasma collected. M-I concentration was determined using liquid chromatography-mass spectrometry/mass spectrometry (LC-MS/MS) as described earlier (Fuerst et al. (2018) Chem.; 26, 4984-4995).

[7] = system: insulin secretion; settings: in vitro; cited from earlier work
[8] = system: c-Met and c-Myc; experiment: Western blot of Ca127 tumor lysates; assay type: in vivo, nude mice; settings: Ca127 xenograft tumors
Description: Lysates from control, BME or M-I treated cells and tumors were prepared using 2 SDS sample buffer and subjected to western blot analysis using specific antibodies to c-Met (1:500, Cell Signaling Technology, CST, Denvers, Mass., USA,), phospho-STAT3 (pSTAT3-Tyr-705) (1:1000, CST), total STAT3 (1:1000, CST), c-Myc (1:1000, CST), surviving (1:500, Santa Cruz Biotechnology, SBT, Dallas, Tex., USA) and cyclin D1 (1: 500, SBT). HRP conjugated anti-mouse or anti-rabbit secondary antibodies were purchased from Bio-Rad (Hercules, Calif., USA). The blot was reprobed with HRP conjugated -actin antibody (1:5000; SBT) to compare protein load in each lane. Densitometry analysis was done using Image J software (NIH, Bethesda, Md., USA).
as §1, with “All the animal experiments were carried out in accordance NIH guidelines, following a protocol approved (1017) by the Institutional Animal Care and Use Committee (IACUC) of Saint Louis University.” left out

CC(C)=CC(O)CC(C)[C@H]1CC[C@@]2(C)[C@@H]3[C@@H](O)C=C4[C@@H](CC[C@H](O)C4(C)C)[C@]3(C=O)CC[C@]12C (stereo partly drawn) [M-I, (3S, 7S, 8S, 9R, 10R, 13R, 14S, 17R) 3,7-dihydroxy-17-(4-hydroxy-6-methylhept-5-en-2-yl)-4,4,13,14-tetramethyl-2,3,7,8,10,11, 12,15, 16,17-decahydro-1H-cyclopenta[a]phenanthrene-9-carbaldehyde]
Reported Biology [1]: stimulate insulin; also recorded: cardiac fibrosis | body weight in toxicity study ([2]; M-I 20 mg/kg twice a day or 30 mg/kg once a day IP, five days): stable | serum total bilirubin, alanine transaminase, aspartate transaminase, alkaline phosphatase, creatinine, urea and glucose versus untreated control ([2]; blood on day six, M-I IP five days): comparable | IC50 [3]: < 8 µg/mL | cell growth of TNBC cell lines [4]: inhibits cell growth in a time-dependent manner | reduction of tumor growth, M-I compared with BME ([5]; M-I 30 mg/kg IP once a day versus BME 30% in drinking water): better effect | tumor volume ([5]; M-I 30 mg/kg IP once a day, BME 30% in drinking water, sacrifice day 32): significantly reduced tumor volume | sudden drop in body weight ([5]; three out of five mice, Day 20, M-I 30 mg/kg IP once a day, weight gained back): −10% | adverse events after single dose, IP group ([6]; 20 mg/kg IP): No adverse events | adverse events after single dose, oral group ([6]; 20 mg/kg PO, starting four hours post-dose, not resolved by 8 h, normal after twenty-four hours): loose stool | AUC (% Extrap) ([6]; 20 mg/Kg IP): 0.33 ± 0.08% | AUC (% Extrap) ([6]; 20 mg/Kg PO): 6.84 ± 1.5% | insulin secretion [7]: stimulate insulin secretion | c-Met and c-Myc expression in tumors versus control [8]: significant reduction
